Source: patent US9499502B2, “5-substituted iminothiazines and their mono- and dioxides as BACE inhibitors, compositions, and their use” (Merck Sharp & Dohme Corp., priority 2011, dated 2016)
Where two headings read alike, the source gives them in different places.

Key:
[1] = molecular target: purified human autoBACE-2 (Homo sapiens (Human), UniProt Q9Y5Z0); assay: BACE-2 Assay (BACE-HTRF assay); type: biochemical
Procedure: Inhibitor IC50s at purified human autoBACE-2 are determined in a time-resolved endpoint proteolysis assay that measures hydrolysis of the QSY7-[…]-Eu-amide FRET peptide substrate (BACE-HTRF assay). […] DMSO is present at 5% final concentration in the assay. Following laser excitation of sample wells at 320 nm, the fluorescence signal at 620 nm is collected for 400 ms following a 50 μs delay on a RUBYstar HTRF plate reader (BMG Labtechnologies). Raw RFU data is normalized to maximum (1.0 nM BACE/DMSO) and minimum (no enzyme/DMSO) RFU values. […] The Ki values are calculated from the IC50 using the Cheng-Prusoff equation.

[2] = molecular target: soluble human BACE1 catalytic domain (Homo sapiens (Human), UniProt P56817); assay: BACE1 HTRF FRET Assay; conditions: for Ki: read-out: BACE1 Ki
[3] = Ki calculated from IC50 using the Cheng-Prusoff equation, read-out: BACE2 Ki
[4] = Ki calculated from IC50 using the Cheng-Prusoff equation

Sequence of soluble human BACE1 catalytic domain (P56817 75-416): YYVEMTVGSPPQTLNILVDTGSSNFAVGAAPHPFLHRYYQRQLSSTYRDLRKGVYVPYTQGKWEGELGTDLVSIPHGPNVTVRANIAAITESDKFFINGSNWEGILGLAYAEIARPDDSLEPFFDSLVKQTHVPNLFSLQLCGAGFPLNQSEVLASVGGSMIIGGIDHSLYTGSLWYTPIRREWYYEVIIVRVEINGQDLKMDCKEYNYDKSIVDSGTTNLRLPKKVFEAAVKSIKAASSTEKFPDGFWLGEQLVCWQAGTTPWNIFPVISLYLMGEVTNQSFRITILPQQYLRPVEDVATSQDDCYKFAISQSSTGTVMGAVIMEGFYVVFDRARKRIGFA
Sequence of purified human autoBACE-2 (Q9Y5Z0 63-473): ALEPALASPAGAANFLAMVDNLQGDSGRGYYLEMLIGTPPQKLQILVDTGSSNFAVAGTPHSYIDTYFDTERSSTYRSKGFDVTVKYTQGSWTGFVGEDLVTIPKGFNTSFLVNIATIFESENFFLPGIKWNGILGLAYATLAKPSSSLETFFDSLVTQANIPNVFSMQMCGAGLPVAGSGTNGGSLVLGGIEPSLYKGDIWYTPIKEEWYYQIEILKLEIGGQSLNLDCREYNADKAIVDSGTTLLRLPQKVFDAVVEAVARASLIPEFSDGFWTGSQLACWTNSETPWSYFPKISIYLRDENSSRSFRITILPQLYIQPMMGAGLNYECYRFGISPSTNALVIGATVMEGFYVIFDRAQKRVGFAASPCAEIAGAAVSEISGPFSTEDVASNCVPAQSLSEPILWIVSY

| Ki [1, 3] [nM] | Ki [2, 4] [nM] | inhibition at 1 µM ([2]; read-out: BACE1 % Inh. at 1 μM, at 1 μM) [%] | Ki [2] [nM] | Structure (SMILES) | Ki [1] [nM] |
| --- | --- | --- | --- | --- | --- |
| 101 to 700 | 282 | – | – | COc1ccc(C(=O)Nc2ccc(F)c([C@]3(C)CS(=O)(=O)[C@](C)(c4ccccn4)C(=N)N3)c2)nc1 [Example 9cx-b] | – |
| 11 to 100 | 6.9 | – | – | COc1cnc(C(=O)Nc2ccc(F)c([C@]3(C)CS(=O)(=O)[C@@](C)(c4ccccn4)C(=N)N3)c2)cn1 [Example 9cy-a] | – |
| 101 to 700 | 209 | – | – | COc1cnc(C(=O)Nc2ccc(F)c([C@]3(C)CS(=O)(=O)[C@](C)(c4ccccn4)C(=N)N3)c2)cn1 [Example 9cy-b] | – |
| 11 to 100 | 6 | – | – | C[C@@]1(c2cc(NC(=O)c3ccc(C(F)(F)F)cn3)ccc2F)CS(=O)(=O)[C@@](C)(c2ccccn2)C(=N)N1 [Example 9cz-a] | – |
| 101 to 700 | 181 | – | – | C[C@@]1(c2ccccn2)C(=N)N[C@](C)(c2cc(NC(=O)c3ccc(C(F)(F)F)cn3)ccc2F)CS1(=O)=O [Example 9cz-b] | – |
| 11 to 100 | 198 | – | – | C[C@@]1(c2cccc(F)c2)C(=N)N[C@](C)(c2cc(NC(=O)c3ccc(F)cn3)ccc2F)CS1(=O)=O [Example 9da-b] | – |
| 11 to 100 | 3 | – | – | COc1ccc(C(=O)Nc2ccc(F)c([C@]3(C)CS(=O)(=O)[C@@](C)(c4cccc(F)c4)C(=N)N3)c2)nc1 [Example 9dc-a] | – |
| 101 to 700 | 228 | – | – | COc1cnc(C(=O)Nc2ccc(F)c([C@]3(C)CS(=O)(=O)[C@](C)(c4cccc(F)c4)C(=N)N3)c2)cn1 [Example 9dd-b] | – |
| 101 to 700 | 175 | – | – | C[C@@]1(c2cccc(F)c2)C(=N)N[C@](C)(c2cc(NC(=O)c3ccc(C(F)(F)F)cn3)ccc2F)CS1(=O)=O [Example 9de-b] | – |
| 101 to 700 | 186 | – | – | COc1cnc(C(=O)Nc2ccc(F)c([C@]3(C)CS(=O)(=O)[C@](C)(c4ccc(F)cc4)C(=N)N3)c2)cn1 [Example 9dg-b] | – |
| 11 to 100 | 42.6 | – | – | COc1cnc(C(=O)Nc2ccc(F)c([C@]3(C)CS(=O)(=O)[C@](C)(CC4CC4)C(=N)N3)c2)cn1 [Example 9dk-b] | – |
| 11 to 100 | 33.2 | – | – | C[C@@]1(c2cc(NC(=O)c3ccc(C(F)(F)F)cn3)ccc2F)CS(=O)(=O)[C@](C)(CC2CC2)C(=N)N1 [Example 9dl-b] | – |
| 11 to 100 | 33.6 | – | – | C=CC[C@]1(C)C(=N)N[C@](C)(c2cc(NC(=O)c3cnc(OC)cn3)ccc2F)CS1(=O)=O [Example 9dm-b] | – |
| 11 to 100 | 74.5 | – | – | C[C@@]1(c2cc(NC(=O)c3ccc(F)cn3)ccc2F)CS(=O)(=O)[C@](C)(CC(F)(F)F)C(=N)N1 [Example 9dp-b] | – |
| 11 to 100 | 54.3 | – | – | COc1ccc(C(=O)Nc2ccc(F)c([C@]3(C)CS(=O)(=O)[C@](C)(CC(F)(F)F)C(=N)N3)c2)nc1 [Example 9dq-b] | – |
| 101 to 700 | 137 | – | – | COc1cnc(C(=O)Nc2ccc(F)c([C@]3(C)CS(=O)(=O)[C@](C)(CC(F)(F)F)C(=N)N3)c2)cn1 [Example 9dr-b] | – |
| 11 to 100 | 304 | – | – | C[C@@]1(C2CCC2)C(=N)N[C@](C)(c2cc(NC(=O)c3ccc(F)cn3)ccc2F)CS1(=O)=O [Example 9dv-b] | – |
| 11 to 100 | 66.3 | – | – | C[C@@]1(C2CCC2)C(=N)N[C@](C)(c2cc(NC(=O)c3ccc(Cl)cn3)ccc2F)CS1(=O)=O [Example 9dw-b] | – |
| 101 to 700 | 307 | – | – | COc1ccc(C(=O)Nc2ccc(F)c([C@]3(C)CS(=O)(=O)[C@](C)(C4CCC4)C(=N)N3)c2)nc1 [Example 9dx-b] | – |
| 101 to 700 | 499 | – | – | COc1cnc(C(=O)Nc2ccc(F)c([C@]3(C)CS(=O)(=O)[C@](C)(C4CCC4)C(=N)N3)c2)cn1 [Example 9dy-b] | – |
| 101 to 700 | 123 | – | – | C[C@@]1(C2CCC2)C(=N)N[C@](C)(c2cc(NC(=O)c3ccc(C(F)(F)F)cn3)ccc2F)CS1(=O)=O [Example 9dz-b] | – |
| 11 to 100 | 224 | – | – | CC(C)[C@]1(C)C(=N)N[C@](C)(c2cc(NC(=O)c3ccc(F)cn3)ccc2F)CS1(=O)=O [Example 9ea-b] | – |
| 101 to 700 | 257 | – | – | COc1ccc(C(=O)Nc2ccc(F)c([C@]3(C)CS(=O)(=O)[C@](C)(C(C)C)C(=N)N3)c2)nc1 [Example 9eb-b] | – |
| 11 to 100 | 14.9 | – | – | COc1cnc(C(=O)Nc2ccc(F)c([C@]3(C)CS(=O)(=O)[C@@](C)(C(C)C)C(=N)N3)c2)cn1 [Example 9ec-a] | – |
| 101 to 700 | 522 | – | – | COc1cnc(C(=O)Nc2ccc(F)c([C@]3(C)CS(=O)(=O)[C@](C)(C(C)C)C(=N)N3)c2)cn1 [Example 9ec-b] | – |
| 49 | 185 | – | – | Cc1nnc(C(=O)Nc2ccc(F)c([C@]3(C)CS(=O)(=O)C(C)(C)C(=N)N3)c2)o1 [Example 9i] | – |
| 12 | 6.6 | – | – | COc1cnc(C(=O)Nc2cc(F)c(F)c([C@]3(C)CS(=O)(=O)C(C)(C)C(=N)N3)c2)cn1 [Example 9n] | – |

| Ki [1, 3] [nM] | Ki [2, 4] [nM] | inhibition at 1 µM ([2]; read-out: BACE1 % Inh. at 1 μM, at 1 μM) [%] | Ki [2] [nM] | Structure (SMILES) | Ki [1] [nM] |
| --- | --- | --- | --- | --- | --- |
| 13 | 9.6 | – | – | CC1(C)C(=N)N[C@](C)(c2cc(NC(=O)c3ccc(C(F)(F)F)cn3)cc(Cl)c2F)CS1(=O)=O [Example 9v] | – |
| 11 | 44 | – | – | COc1ccc(C(=O)Nc2ccc(F)c([C@]3(C)CS(=O)(=O)C(C)(C)C(=N)N3)c2F)nc1 [Example 9y] | – |
| 59 | 52.9 | – | – | COc1cnc(C(=O)Nc2ccc(F)c([C@]3(C)CS(=O)(=O)C(C)(C)C(=N)N3)c2F)cn1 [Example 9z] | – |
| 445 | – | 43 | – | CC1(C)C(=N)N[C@](C)(c2cc(-c3cc(F)cc(-c4nnco4)c3)ccc2F)CS1(=O)=O [Example 16a] | – |
| 8 | 26.9 | – | – | CC1(C)C(=N)N[C@](C)(c2sc(C(=O)Nc3cccc(Cl)n3)cc2Cl)CS1(=O)=O [Example 20] | – |
| 1800 | 616 | – | – | CC1=NOC(CNC(=O)c2cc(Cl)c([C@]3(C)CS(=O)(=O)C(C)(C)C(=N)N3)s2)C1 (some centres unmarked) [Example 22f] | – |
| 51 | 736 | – | – | CC1(C)C(=N)N[C@](C)(c2sc(C(=O)NCc3cccc(-c4ccon4)c3)cc2Cl)CS1(=O)=O [Example 22g] | – |
| 77 | 2720 | – | – | CC1(C)C(=N)N[C@](C)(c2sc(C(=O)NCc3cc(Cl)ccn3)cc2Cl)CS1(=O)=O [Example 22u] | – |
| < 200 | 63 | – | – | CC1(C)C(=N)N[C@](C)(c2sc(-c3cncc(C#N)c3)cc2Cl)CS1(=O)=O [Example 23] | – |
| 314 | 387 | – | – | CC1(C)C(=N)N[C@](C)(c2sc(-c3cncnc3)cc2Cl)CS1(=O)=O [Example 24] | – |
| < 200 | 172 | – | – | CC1(C)C(=N)N[C@](C)(c2sc(-c3ccc(F)c(C(F)(F)F)c3)cc2Cl)CS1(=O)=O [Example 27a] | – |
| ≤ 20 | – | – | 21 | COc1cccc2cc(-c3cc(F)c([C@]4(C)CS(=O)(=O)C(C)(C)C(=N)N4)s3)[nH]c12 [Example 27an] | – |
| ≤ 20 | – | – | 100 | CC1(C)C(=N)N[C@](C)(c2sc(-c3cccc(-c4ncon4)c3)cc2F)CS1(=O)=O [Example 27ao] | – |
| ≤ 20 | – | – | 76 | CC1(C)C(=N)N[C@](C)(c2sc(-c3cccc(C#N)c3)cc2F)CS1(=O)=O [Example 27aq] | – |
| ≤ 20 | – | – | 9.4 | CC1(C)C(=N)N[C@](C)(c2sc(-c3cc(F)cc(-c4nnco4)c3)cc2F)CS1(=O)=O [Example 27as] | – |
| ≤ 20 | – | – | 26 | CC1(C)C(=N)N[C@](C)(c2sc(-c3cc(F)cc(-c4cnco4)c3)cc2F)CS1(=O)=O [Example 27at] | – |
| ≤ 20 | 102 | – | – | CC1(C)C(=N)N[C@](C)(c2sc(-c3nnc(-c4ccc(F)cc4)o3)cc2Cl)CS1(=O)=O [Example 27bb] | – |
| ≤ 20 | 35.9 | – | – | CC1(C)C(=N)N[C@](C)(c2sc(-c3nnc(-c4ccc(Cl)cc4)o3)cc2Cl)CS1(=O)=O [Example 27bc] | – |
| ≤ 20 | – | – | 30.9 | CC1(C)C(=N)N[C@](C)(c2sc(-c3nnc(-c4ccc(Cl)cc4)o3)cc2F)CS1(=O)=O [Example 27bf] | – |
| ≤ 20 | – | – | 79.3 | CC1(C)C(=N)N[C@](C)(c2sc(-c3nnc(-c4ccc(F)cc4)o3)cc2F)CS1(=O)=O [Example 27bg] | – |
| ≤ 20 | – | – | 74 | COc1ccc(-c2nnc(-c3cc(F)c([C@]4(C)CS(=O)(=O)C(C)(C)C(=N)N4)s3)o2)cc1 [Example 27bh] | – |
| 7 | – | – | 35.7 | C[C@]1(CC(F)(F)F)C(=N)N[C@](C)(c2sc(-c3cccc(C#N)c3)cc2F)CS1(=O)=O [Example 27bj-a] | – |
| 9 | – | – | 4.7 | C[C@]1(CC(F)(F)F)C(=N)N[C@](C)(c2sc(-c3cccc(-c4nnco4)c3)cc2F)CS1(=O)=O [Example 27bk-a] | – |
| 9 | – | – | 223 | COc1cccc(-c2cc(F)c([C@]3(C)CS(=O)(=O)[C@@](C)(CC(F)(F)F)C(=N)N3)s2)c1 [Example 27bl-a] | – |
| 7 | – | – | 35 | CC1(CC(F)(F)F)C(=N)N[C@](C)(c2sc(-c3ccc(F)c(C#N)c3)cc2F)CS1(=O)=O (some centres unmarked) [Example 27bm-a] | – |
| 10 | – | – | 58.5 | C[C@@]1(c2sc(-c3cccc(C#N)c3)cc2F)CS(=O)(=O)[C@@](C)(c2cccc(F)c2)C(=N)N1 [Example 27br-a] | – |

| Structure (SMILES) | Ki [1, 3] [nM] | Ki [2, 4] [nM] | inhibition at 1 µM ([2]; read-out: BACE1 % Inh. at 1 μM, at 1 μM) [%] | Ki [2] [nM] | Ki [1] [nM] |
| --- | --- | --- | --- | --- | --- |
| C[C@@]1(c2ccc(F)cc2)C(=N)N[C@](C)(c2cc(NC(=O)c3ccc(F)cn3)ccc2F)CS1(=O)=O [Example 9df-b] | – | 165 | – | – | 11 to 100 |
| CC1(C)C(=N)N[C@](C)(c2cc(NC(=N)c3ncc(F)cc3F)ccc2F)CS1(=O)=O [Example 9ef] | 218 | 989 | – | – | – |
